This is an account of results in patent US9938269B2, “Inhibitor compounds of phosphodiesterase type 10A” (ABBVIE INC., priority 2011, dated 2018).

A short description of data set [1]: Determination of the microsomal half-life, human liver microsomes. To be noted: human, liver microsomes, pH 7.4.
Experimental: (§1) The test substances were incubated in a concentration of 0.5 μM as follows:
(§2) 0.5 μM test substance are preincubated together with liver microsomes from different species (from rat, human or other species) (0.25 mg of microsomal protein/10 in 0.05 M potassium phosphate buffer of pH 7.4 in microtiter plates at 37° C. for 5 min. The reaction is started by adding NADPH (1 mg/mL). After 0, 5, 10, 15, 20 and 30 min., 50 μl aliquots are removed, and the reaction is immediately stopped and cooled with the same volume of acetonitrile. The samples are frozen until analyzed. The remaining concentration of undegraded test substance is determined by MSMS. The half-life (T½) is determined from the gradient of the signal of test substance/unit time plot, it being possible to calculate the half-life of the test substance, assuming first order kinetics, from the decrease in the concentration of the compound with time. The microsomal clearance (mCl) is calculated from mCl=ln 2/T½/(content of microsomal protein in mg/ml)×1000 [ml/min/mg]
In another data set the target is T1, PDE10A (human) (Homo sapiens, UniProt Q9Y233).
T1 construct: purchased BPS Bioscience
Put plainly: Measurement of PDE activity (HTRF cAMP kit), human PDE10A. Format: biochemical. To be noted: PDE enzymatic reaction, substrate 20 nM for PDE10, 60 minutes at 29 C. The method in brief: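 HTRF detection of cAMP left after hydrolysis, expressed as percent of uninhibited control to derive IC50. Reaction: serially diluted inhibitor mixed with recombinant enzyme, started with 20 nM cAMP, 60 min at 29 °C in Tris-HCl pH 7.5 buffer containing MgCl2 and BSA.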
Background: Time-resolved FRET reads energy transfer from a long-lived donor to a nearby acceptor.

Data set [2] is described as follows: Determination of the microsomal half-life, rat liver microsomes. As to conditions: rat, liver microsomes, pH 7.4. For orientation: Liver microsomes are a subcellular fraction often used to study metabolism.
Experimental: as §1, §2

Structures can show the parent of a compound that is named as a salt. Bounds are passed on as bounds.

For orientation: microsomal CLint means the rate of metabolic loss divided by the concentration. For orientation: IC50 means the point on the concentration scale where inhibition reaches its midpoint. A lower IC50 goes with greater potency.

T1 sequence (Q9Y233 whole entry): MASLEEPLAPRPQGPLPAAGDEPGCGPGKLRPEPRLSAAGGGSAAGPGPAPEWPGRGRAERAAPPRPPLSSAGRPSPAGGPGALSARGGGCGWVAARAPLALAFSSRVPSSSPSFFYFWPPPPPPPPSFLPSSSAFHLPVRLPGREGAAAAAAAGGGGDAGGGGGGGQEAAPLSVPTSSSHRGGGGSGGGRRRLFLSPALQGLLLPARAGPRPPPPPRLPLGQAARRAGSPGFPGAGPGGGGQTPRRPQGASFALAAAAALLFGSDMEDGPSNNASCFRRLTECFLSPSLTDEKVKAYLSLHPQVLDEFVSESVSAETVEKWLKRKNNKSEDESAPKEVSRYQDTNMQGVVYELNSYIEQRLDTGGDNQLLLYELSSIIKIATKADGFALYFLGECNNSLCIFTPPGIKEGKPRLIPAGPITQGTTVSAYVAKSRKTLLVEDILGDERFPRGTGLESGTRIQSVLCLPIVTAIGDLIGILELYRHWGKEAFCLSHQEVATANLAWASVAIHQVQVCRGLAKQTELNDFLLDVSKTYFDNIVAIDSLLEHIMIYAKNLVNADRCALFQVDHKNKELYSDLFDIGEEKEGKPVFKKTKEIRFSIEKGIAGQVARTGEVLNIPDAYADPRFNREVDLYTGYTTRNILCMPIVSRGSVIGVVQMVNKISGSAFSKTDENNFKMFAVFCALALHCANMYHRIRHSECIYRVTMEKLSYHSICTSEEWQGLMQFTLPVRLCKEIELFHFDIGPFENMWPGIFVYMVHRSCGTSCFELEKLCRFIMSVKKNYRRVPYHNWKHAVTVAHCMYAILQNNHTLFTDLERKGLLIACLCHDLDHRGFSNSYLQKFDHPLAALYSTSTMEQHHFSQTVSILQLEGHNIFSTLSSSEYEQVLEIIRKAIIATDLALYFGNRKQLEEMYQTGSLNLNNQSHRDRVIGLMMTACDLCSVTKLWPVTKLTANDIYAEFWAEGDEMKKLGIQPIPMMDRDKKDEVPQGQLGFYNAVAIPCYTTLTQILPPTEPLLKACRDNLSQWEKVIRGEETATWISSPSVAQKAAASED

On to `O=C1c2c(N3CCOCC3)ccnc2CN1CCc1ccc(Cl)cn1` [compound 505, 6-[2-(5-Chloro-2-pyridyl)ethyl]-4-morpholino-7H-pyrrolo[3,4-b]pyridin-5-one], for which the intrinsic metabolic clearance (microsomal CLint) at 0.5 μM in data set [1] and in data set [2] was less than 100 µL/min/mg in each case. This molecule also had a half-inhibitory concentration (IC50) on PDE10A (human) of 200 to 500 nM.

Consider `Cc1ccc2c(c1)nc(CCN1Cc3nccc(-c4ccncc4)c3C1=O)n2C` [compound 536, 6-[2-(1,5-Dimethyl-1H-benzoimidazol-2-yl)-ethyl]-4-pyridin-4-yl-6,7-dihydro-pyrrolo[3,4-b]pyridin-5-one], for which the figures for the intrinsic metabolic clearance (microsomal CLint) at 0.5 μM in data set [1] and in data set [2] were 100 to 220 µL/min/mg and less than 100 µL/min/mg, respectively. This molecule gave an IC50 against PDE10A (human) of less than 100 nM.

On to `O=C1c2c(-c3cc[nH]n3)ccnc2CN1CCc1nc2ccccc2s1` [compound 429, 6-[2-(1,3-Benzothiazol-2-yl)ethyl]-4-(1H-pyrazol-3-yl)-7H-pyrrolo[3,4-b]pyridin-5-one], for which the intrinsic metabolic clearance (microsomal CLint) at 0.5 μM in data set [1] and in data set [2] was less than 100 µL/min/mg throughout. The molecule further had an IC50 on PDE10A (human) of less than 100 nM.

Turning to `O=C1c2c(N3CCC4(COC4)C3)ccnc2CN1CCc1ccc2ccccc2n1` [Example 257, 4-(2-Oxa-6-aza-spiro[3.4]oct-6-yl)-6-(2-quinolin-2-yl-ethyl)-6,7-dihydro-pyrrolo[3,4-b]pyridin-5-one], the microsomal CLint at 0.5 μM in data set [1] and in data set [2] was 100 to 220 µL/min/mg each time. In addition, the IC50 against PDE10A (human) is less than 100 nM.

Consider `Cc1nc(CCN2Cc3nccc(N4CCOCC4)c3C2=O)sc1C` [compound 519, 6-[2-(4,5-Dimethylthiazol-2-yl)ethyl]-4-morpholino-7H-pyrrolo[3,4-b]pyridin-5-one], for which the microsomal CLint at 0.5 μM in data set [1] is less than 100 µL/min/mg; in data set [2], greater than 220 µL/min/mg. Further, on PDE10A (human), the half-inhibitory concentration (IC50) was less than 100 nM.

Consider `Cn1c(CCN2Cc3cccc(-c4cncnc4)c3C2=O)nc2ccccc21` [Example 197, 2-[2-(1-Methyl-1H-benzoimidazol-2-yl)-ethyl]-7-pyrimidin-5-yl-2,3-dihydro-isoindol-1-one], for which the figures for the microsomal CLint at 0.5 μM in data set [1] and in data set [2] were 100 to 220 µL/min/mg and less than 100 µL/min/mg, respectively. Further, the IC50 against PDE10A (human) is less than 100 nM.

For `Cc1ccnc(CCN2Cc3nccc(N4CCOCC4)c3C2=O)c1` [compound 521, 6-[2-(4-Methyl-2-pyridyl)ethyl]-4-morpholino-7H-pyrrolo[3,4-b]pyridin-5-one], the intrinsic clearance (microsomal CLint) at 0.5 μM in data set [1] and in data set [2] was less than 100 µL/min/mg throughout. Further, on PDE10A (human), the IC50 was in the range of 200 to 500 nM.

Regarding `O=C1c2c(cccc2N2CCOCC2)CN1CCc1cccc(-c2ncccn2)c1` [Example 120, 7-Morpholino-2-(3-(pyrimidin-2-yl)phenethyl)isoindolin-1-one], the microsomal CLint at 0.5 μM in data set [1] and in data set [2] was 100 to 220 µL/min/mg throughout. Besides, at PDE10A (human), the half-maximal inhibitory concentration (IC50) lay within 200 to 500 nM.

On to `COc1ccc(-c2ccnc3c2CN(CCc2cn4ccccc4n2)C3=O)cc1` [compound 461, 6-(2-Imidazo[1,2-a]pyridin-2-yl-ethyl)-4-(4-methoxy-phenyl)-5,6-dihydro-pyrrolo[3,4-b]pyridin-7-one trifluoroacetate], for which the values for the intrinsic clearance (microsomal CLint) at 0.5 μM in data set [1] and in data set [2] were less than 100 µL/min/mg and greater than 220 µL/min/mg, respectively. This molecule also had a half-maximal inhibitory concentration (IC50) at PDE10A (human) of 100 to 200 nM.

On to `O=C1c2cccc(N3CCS(=O)(=O)CC3)c2C(=O)N1CCc1ccc2ccccc2n1` [Example 250, 4-(1,1-Dioxothiomorpholin-4-yl)-2-(2-quinolin-2-yl-ethyl)-isoindole-1,3-dione], for which the microsomal CLint at 0.5 μM in data set [1] is 100 to 220 µL/min/mg; in data set [2], greater than 220 µL/min/mg. Besides, the IC50 at PDE10A (human) was less than 100 nM.

As for `CN1CCN(c2ccnc3c2C(=O)N(CCc2ccc4ccccc4n2)C3)CC1` [Example 138, 4-(4-Methyl-piperazin-1-yl)-6-(2-quinolin-2-yl-ethyl)-6,7-dihydro-pyrrolo[3,4-b]pyridin-5-one], the microsomal CLint at 0.5 μM in data set [1] and in data set [2] was less than 100 µL/min/mg each time. Also, the concentration for half-maximal inhibition (IC50) against PDE10A (human) is less than 100 nM.

Turning to `CN(C)Cc1ccc(-c2cccc3c2C(=O)N(CCc2ccc4ccccc4n2)C3)cc1` [Example 188, 7-(4-Dimethylaminomethyl-phenyl)-2-(2-quinolin-2-yl-ethyl)-2,3-dihydro-isoindol-1-one (dihydrochloride)], the microsomal CLint at 0.5 μM in data set [1] and in data set [2] was 100 to 220 µL/min/mg each time. The same molecule came in with an IC50 on PDE10A (human) of 200 to 500 nM.

As to `O=C1c2c(-c3cncnc3)ccnc2CN1CCc1nc2ccccc2s1` [compound 544, 6-[2-(1,3-Benzothiazol-2-yl)ethyl]-4-pyrimidin-5-yl-7H-pyrrolo[3,4-b]pyridin-5-one], the microsomal CLint at 0.5 μM in data set [1] and in data set [2] was less than 100 µL/min/mg in each case. For the same molecule, the half-inhibitory concentration (IC50) at PDE10A (human) fell in the range of 100 to 200 nM.

For the molecule `O=C1c2c(cccc2N2CCC3(COC3)C2)CN1CCc1ccc2ccccc2n1` [Example 134, 7-(2-Oxa-6-aza-spiro[3.4]oct-6-yl)-2-(2-quinolin-2-yl-ethyl)-2,3-dihydro-isoindol-1-one], the microsomal CLint at 0.5 μM in data set [1] is greater than 220 µL/min/mg; in data set [2] it was 100 to 220 µL/min/mg. In addition, the IC50 on PDE10A (human) was less than 100 nM.

As to `COc1ccc(-c2cn[nH]c2)c2c1CN(CCc1ccc3ccccc3n1)C2=O` [Example 180, 4-Methoxy-7-(1H-pyrazol-4-yl)-2-(2-quinolin-2-yl-ethyl)-2,3-dihydro-isoindol-1-one], the intrinsic clearance (microsomal CLint) at 0.5 μM was 100 to 220 µL/min/mg in data set [1] and greater than 220 µL/min/mg in data set [2]. The IC50 against PDE10A (human) was less than 100 nM.

With `COc1ccc(-c2ccnn2C)c2c1CN(CCc1ccc3ccccc3n1)C2=O` [Example 210, 4-Methoxy-7-(2-methyl-2H-pyrazol-3-yl)-2-(2-quinolin-2-yl-ethyl)-2,3-dihydro-isoindol-1-one], the intrinsic metabolic clearance (microsomal CLint) at 0.5 μM in data set [1] was 100 to 220 µL/min/mg; in data set [2], greater than 220 µL/min/mg. The concentration for half-maximal inhibition (IC50) on PDE10A (human) is less than 100 nM.

As for `O=C(O)C1CN(c2ccnc3c2C(=O)N(CCc2ccc4ccccc4n2)C3)C1` [compound 446, 1-[5-oxo-6-[2-(2-quinolyl)ethyl]-7H-pyrrolo[3,4-b]pyridin-4-yl]azetidine-3-carboxylic acid], the microsomal CLint at 0.5 μM in data set [1] and in data set [2] was less than 100 µL/min/mg in each case. On PDE10A (human), this molecule had an IC50 of 100 to 200 nM.

For `O=C1c2c(-c3ccc(F)cc3)ccnc2CN1CCc1nc2ccccc2s1` [compound 542, 6-[2-(1,3-Benzothiazol-2-yl)ethyl]-4-(4-fluorophenyl)-7H-pyrrolo[3,4-b]pyridin-5-one trifluoroacetate], the intrinsic clearance (microsomal CLint) at 0.5 μM was less than 100 µL/min/mg in data set [1] and 100 to 220 µL/min/mg in data set [2]. Moreover, the IC50 at PDE10A (human) was 100 to 200 nM.

As for `Cc1ccc2c(c1)nc(CCN1Cc3nccc(NC4COC4)c3C1=O)n2C` [compound 416, 6-[2-(1,5-Dimethyl-1H-benzoimidazol-2-yl)-ethyl]-4-(oxetan-3-ylamino)-6,7-dihydro-pyrrolo[3,4-b]pyridin-5-one], the microsomal CLint at 0.5 μM in data set [1] and in data set [2] was less than 100 µL/min/mg throughout. The IC50 at PDE10A (human) was less than 100 nM.

For `Cn1c(CCN2Cc3cccc(N4CCS(=O)(=O)CC4)c3C2=O)nc2ccccc21` [Example 184, 7-(1,1-Dioxothiomorpholin-4-yl)-2-[2-(1-methyl-1H-benzoimidazol-2-yl)-ethyl]-2,3-dihydro-isoindol-1-one trifluoroacetate], the intrinsic metabolic clearance (microsomal CLint) at 0.5 μM in data set [1] is 100 to 220 µL/min/mg; in data set [2], less than 100 µL/min/mg. The half-maximal inhibitory concentration (IC50) at PDE10A (human) is less than 100 nM.

For `COc1ccc(-c2cc[nH]n2)c2c1C(=O)N(CCc1cn3ccccc3n1)C2` [compound 454, 2-(2-Imidazo[1,2-a]pyridin-2-yl-ethyl)-7-methoxy-4-(1H-pyrazol-3-yl)-2,3-dihydro-isoindol-1-one], the microsomal CLint at 0.5 μM in data set [1] and in data set [2] was less than 100 µL/min/mg in each case. This molecule had a half-inhibitory concentration (IC50) at PDE10A (human) of 100 to 200 nM.

Regarding `Cc1cccn2cc(CCN3Cc4nccc(-c5ccncc5)c4C3=O)nc12` [compound 496, 6-[2-(8-Methylimidazo[1,2-a]pyridin-2-yl)ethyl]-4-(4-pyridyl)-7H-pyrrolo[3,4-b]pyridin-5-one trifluoroacetate], the microsomal CLint at 0.5 μM in data set [1] and in data set [2] was less than 100 µL/min/mg in each case. In addition, the IC50 at PDE10A (human) was less than 100 nM.

As for `O=C1c2c(-c3cn[nH]c3)ccnc2CN1CCc1nc2ccccc2s1` [compound 538, 6-[2-(1,3-Benzothiazol-2-yl)ethyl]-4-(1H-pyrazol-4-yl)-7H-pyrrolo[3,4-b]pyridin-5-one trifluoroacetate], the microsomal CLint at 0.5 μM in data set [1] is less than 100 µL/min/mg; in data set [2], 100 to 220 µL/min/mg. Besides, the 50% inhibitory concentration (IC50) on PDE10A (human) is less than 100 nM.

On to `CCOc1ncc(-c2cccc3c2CN(CCc2ccc4ccccc4n2)C3=O)cn1` [Example 343, 4-(2-Ethoxy-pyrimidin-5-yl)-2-(2-quinolin-2-yl-ethyl)-2,3-dihydro-isoindol-1-one], for which the microsomal CLint at 0.5 μM in data set [1] is 100 to 220 µL/min/mg; in data set [2], greater than 220 µL/min/mg. In addition, on PDE10A (human), the IC50 fell in the range of 200 to 500 nM.

`COc1ccc(-c2ccncc2)c2c1C(=O)N(CCc1cn3ccccc3n1)C2` [compound 448, 2-(2-Imidazo[1,2-a]pyridin-2-yl-ethyl)-7-methoxy-4-pyridin-4-yl-2,3-dihydro-isoindol-1-one trifluoroacetate]: the microsomal CLint at 0.5 μM in data set [1] and in data set [2] was less than 100 µL/min/mg each time. Besides, the IC50 on PDE10A (human) is less than 100 nM.

On to `CN1CCN(c2cccc3c2C(=O)N(CCc2ccc4ccccc4n2)C3)CC1` [Example 107, 7-(4-Methyl-piperazin-1-yl)-2-(2-quinolin-2-yl-ethyl)-2,3-dihydro-isoindol-1-one], for which the microsomal CLint at 0.5 μM in data set [1] and in data set [2] was less than 100 µL/min/mg throughout. This molecule also had an IC50 at PDE10A (human) of 200 to 500 nM.

As to `CCc1csc(CCN2Cc3nccc(N4CCOCC4)c3C2=O)n1` [compound 516, 6-[2-(4-Ethylthiazol-2-yl)ethyl]-4-morpholino-7H-pyrrolo[3,4-b]pyridin-5-one], the results for the microsomal CLint at 0.5 μM in data set [1] and in data set [2] were less than 100 µL/min/mg and 100 to 220 µL/min/mg, respectively. On PDE10A (human), this molecule had an IC50 of less than 100 nM.
